In patent US20120220590A1, “NOVEL COMPOUNDS AS MODULATORS OF GLUCOCORTICOID RECEPTORS” (priority 2009, published 2012):

Assays:
[1] = tested on: LPS-induced TNFα secretion in U 937 cells; test: Modulation of proinflammatory cytokine production in U 937 cells (transrepression): TNFα; type: cell-based; conditions: Homo sapiens, U 937 cells stimulated with 5 μg/mL LPS, inhibition by Dexamethasone at 10 nM considered as 100%, read-out: % TNF α Inhibition; for inhibition at 0.1 µM: 0.1 μM test compound; for inhibition at 1 µM: 1 μM test compound
Method: (§1) VI) Modulation of Proinflammatory Cytokine Production in U 937 Cells (Determination of Transrepression)
(§2) Testing of compounds in GR-mediated inhibition of LPS-induced TNFα, IL-1β, and IL-6 secretion in U 937 cells.
(§3) Differentiated U 937 cells are incubated for 2 days in RPMI1640 medium containing 10% CCS (charcoal treated calf serum). The cells are transferred to 96 well plates and stimulated with 5 μg/mL LPS (dissolved in PBS) in the presence or absence of dexamethasone or test compound (dissolved in DMSO, final concentration 0.2%). Control cells are treated with 0.2% DMSO. After required incubation periods, proinflammatory cytokine(s) concentrations in the cell supernatant are measured by ELISA, using the “BD OptEIA™ Set human TNF, BD OptEIA™ Set human IL-6, BD OptEIA™ Set human IL-1β.
(§4) TNF α inhibition induced by Dexamethasone at 10 nM concentration was considered as 100% and % inhibition of the test NCE was determined as compared to Dexamethasone. Dose-response curves are calculated by fitting to a non-linear 4-parameter logistic model, and absolute EC50 (or IC50) values for the determination of dissociation are derived from these curves and the corresponding curve for dexamethasone on the same experimental occasion.

[2] = tested on: LPS-induced IL-6 secretion in U 937 cells; test: Modulation of proinflammatory cytokine production in U 937 cells (transrepression): IL-6; type: cell-based; conditions: Homo sapiens, U 937 cells stimulated with 5 μg/mL LPS, ELISA; for inhibition at 0.1 µM: 0.1 μM test compound; for inhibition at 1 µM: 1 μM test compound
Method: as §1, §2, §3, §4

`Cc1c(NS(C)(=O)=O)cccc1N(Cc1ccc(Oc2cccc(OCCc3cccnc3)c2)cc1)Cc1cccc(C#N)c1` [Example 62, N-(3-((3-cyanobenzyl)(4-(3-(2-(pyridin-3-yl)ethoxy)phenoxy)benzyl)amino)-2-methylphenyl)methanesulfonamide] showed an inhibition at 0.1 µM [1] of 52.6%, an inhibition at 1 µM [1] of 83.7% and an inhibition at 0.1 µM [2] of 68.4%. The inhibition at 1 µM [2] was 90.8%.

Work on `CCS(=O)(=O)Nc1cccc(N(Cc2ccc(Oc3cc(CO)cc(OCC4CCOC4)c3)cc2)Cc2cccc(C#N)c2)c1C` (centres unmarked) [Example 86, N-(3-((3-cyanobenzyl)(4-(3-(hydroxymethyl)-5-((tetrahydrofuran-3-yl)methoxy)phenoxy)benzyl)amino)-2-methylphenyl)ethanesulfonamide] yielded an inhibition at 0.1 µM [1] of 95.5% and an inhibition at 1 µM [1] of 95.6%.

`Cc1c(NS(C)(=O)=O)cccc1N(Cc1ccc(C#N)cc1)Cc1ccc(Oc2cc(C#N)cc(OCCc3cccnc3)c2)cc1` [Example 84, N-(3-((4-(3-cyano-5-(2-(pyridin-3-yl)ethoxy)phenoxy)benzyl)(4-cyanobenzyl)amino)-2-methylphenyl)methanesulfonamide] showed an inhibition at 0.1 µM [1] of 94.6%, an inhibition at 1 µM [1] of 93.7% and an inhibition at 0.1 µM [2] of 95%. The inhibition at 1 µM [2] was 94.9%.

`CCS(=O)(=O)Nc1cccc(N(Cc2ccc(C#N)cc2)Cc2ccc(Oc3cccc(OCc4ccoc4)c3)cc2)c1C` [Example 20, N-(3-((4-cyanobenzyl)(4-(3-(furan-3-ylmethoxy)phenoxy)benzyl)amino)-2-methylphenyl)ethanesulfonamide] was tested, and the inhibition at 0.1 µM [1] was 88.9%, the inhibition at 1 µM [1] was 93.6% and the inhibition at 0.1 µM [2] was 92.2%. It also gave an inhibition at 1 µM [2] of 97.9%.

`CCS(=O)(=O)Nc1cccc(N(Cc2ccc(Oc3cccc(OCCc4cccnc4)c3)cc2)Cc2cccc(C#N)c2)c1C` [Example 60, N-(3-((3-cyanobenzyl)(4-(3-(2-(pyridin-3-yl)ethoxy)phenoxy)benzyl)amino)-2-methylphenyl)ethanesulfonamide] showed an inhibition at 0.1 µM [1] of 95.1%, an inhibition at 1 µM [1] of 96.3% and an inhibition at 0.1 µM [2] of 90%. For the same compound, the inhibition at 1 µM [2] was 91.7%.

`Cc1c(NS(C)(=O)=O)cccc1N(Cc1ccccc1)Cc1ccc(Oc2cccc(OCCc3cccnc3)c2)cc1` [Example 78, N-(3-(benzyl(4-(3-(2-(pyridin-3-yl)ethoxy)phenoxy)benzyl)amino)-2-methylphenyl)methanesulfonamide] was tested, and the inhibition at 0.1 µM [1] was 67.9%, the inhibition at 1 µM [1] was 83.9% and the inhibition at 0.1 µM [2] was 62%. For the same compound, the inhibition at 1 µM [2] was 74%.

`Cc1c(NS(C)(=O)=O)cccc1N(Cc1ccc(C#N)cc1)Cc1ccc(Oc2cccc(OCC3CCOC3)c2)cc1` (centres unmarked) [Example 58, N-(3-((4-cyanobenzyl)(4-(3-((tetrahydrofuran-3-yl)methoxy)phenoxy)benzyl)amino)-2-methylphenyl)methanesulfonamide] was tested, and the inhibition at 0.1 µM [1] was 13.1%, the inhibition at 1 µM [1] was 55% and the inhibition at 0.1 µM [2] was 45%. For the same compound, the inhibition at 1 µM [2] was 76%.

With `Cc1c(NS(C)(=O)=O)cccc1N(Cc1ccc(C#N)cc1)Cc1ccc(Oc2cc(C#N)cc(OCC3CCOC3)c2)cc1` (centres unmarked) [Example 82, N-(3-((4-(3-cyano-5-((tetrahydrofuran-3-yl)methoxy)phenoxy)benzyl)(4-cyanobenzyl)amino)-2-methylphenyl)methanesulfonamide] the inhibition at 0.1 µM [1] was 50%, the inhibition at 1 µM [1] was 71.1% and the inhibition at 0.1 µM [2] was 60%. It also gave an inhibition at 1 µM [2] of 83%.

Compound `Cc1c(NS(C)(=O)=O)cccc1N(Cc1ccc(C#N)cc1)Cc1ccc(Oc2cc(CO)cc(OCCc3cccnc3)c2)cc1` [Example 76, N-(3-((4-cyanobenzyl)(4-(3-(hydroxymethyl)-5-(2-(pyridin-3-yl)ethoxy)phenoxy)benzyl)amino)-2-methylphenyl)methanesulfonamide] has an inhibition at 0.1 µM [1] of 87.6%, an inhibition at 1 µM [1] of 86.2% and an inhibition at 0.1 µM [2] of 85.7%. The inhibition at 1 µM [2] was 88.8%.

For `CCS(=O)(=O)Nc1cccc(N(Cc2ccc(C#N)cc2)Cc2ccc(Oc3cc(CO)cc(OCc4cccnc4)c3)cc2)c1C` [Example 85, N-(3-((4-cyanobenzyl)(4-(3-(hydroxymethyl)-5-(pyridin-3-ylmethoxy)phenoxy)benzyl)amino)-2-methylphenyl)ethanesulfonamide], the inhibition at 0.1 µM [1] was 88.5% and the inhibition at 1 µM [1] was 91.2%.

In the case of `Cc1c(NS(C)(=O)=O)cccc1N(Cc1ccc(Oc2cc(OCCc3cccnc3)cc(C(N)=O)c2)cc1)Cc1ccc(C#N)c(F)c1` [Example 83, 3-(4-(((4-cyano-3-fluorobenzyl)(2-methyl-3-(methylsulfonamido)phenyl)amino)methyl)phenoxy)-5-(2-(pyridin-3-yl)ethoxy)benzamide], the inhibition at 0.1 µM [1] was 93.4%, the inhibition at 1 µM [1] was 94.5% and the inhibition at 0.1 µM [2] was 95.7%. The inhibition at 1 µM [2] was 95.1%.

`Cc1c(NS(C)(=O)=O)cccc1N(Cc1ccc(C#N)cc1)Cc1ccc(Oc2cc(OCCc3cccnc3)cc(C(N)=O)c2)cc1` [Example 75, 3-(4-(((4-cyanobenzyl)(2-methyl-3-(methylsulfonamido)phenyl)amino)methyl)phenoxy)-5-(2-(pyridin-3-yl)ethoxy)benzamide] showed an inhibition at 0.1 µM [1] of 75.3%, an inhibition at 1 µM [1] of 100% and an inhibition at 0.1 µM [2] of 98.2%. The inhibition at 1 µM [2] was 100%.

Compound `Cc1c(NS(C)(=O)=O)cccc1N(Cc1ccc(C#N)cc1)Cc1ccc(Oc2cc(CO)cc(OCc3cccnc3)c2)cc1` [Example 79, N-(3-((4-cyanobenzyl)(4-(3-(hydroxymethyl)-5-(pyridin-3-ylmethoxy)phenoxy)benzyl)amino)-2-methylphenyl)methanesulfonamide] has an inhibition at 0.1 µM [1] of 87.7%, an inhibition at 1 µM [1] of 88.2% and an inhibition at 0.1 µM [2] of 97%. It also gave an inhibition at 1 µM [2] of 97%.

`CNC(=O)c1cc(OCCc2cccnc2)cc(Oc2ccc(CN(Cc3ccc(C#N)cc3)c3cccc(NS(C)(=O)=O)c3C)cc2)c1` [Example 74, 3-(4-(((4-cyanobenzyl)(2-methyl-3-(methylsulfonamido)phenyl)amino)methyl)phenoxy)-N-methyl-5-(2-(pyridin-3-yl)ethoxy)benzamide] was tested, and the inhibition at 0.1 µM [1] was 90.4%, the inhibition at 1 µM [1] was 100% and the inhibition at 0.1 µM [2] was 100%. For the same compound, the inhibition at 1 µM [2] was 100%.

Compound `Cc1c(NS(C)(=O)=O)cccc1N(Cc1ccc(C#N)cc1)Cc1ccc(Oc2cccc(OCCc3cccs3)c2)cc1` [Example 35, N-(3-((4-cyanobenzyl)(4-(3-(2-(thiophen-2-yl)ethoxy)phenoxy)benzyl)amino)-2-methylphenyl)methanesulfonamide] has an inhibition at 0.1 µM [1] of 41.8%, an inhibition at 1 µM [1] of 83.4% and an inhibition at 0.1 µM [2] of 28%. The inhibition at 1 µM [2] was 54%.

In the case of `CCS(=O)(=O)Nc1cccc(N(Cc2ccc(Oc3cccc(OCC4CCOC4)c3)cc2)Cc2cccc(C#N)c2)c1C` (centres unmarked) [Example 16, N-(3-((3-cyanobenzyl)(4-(3-((tetrahydrofuran-3-yl)methoxy)phenoxy)benzyl)amino)-2-methylphenyl)ethanesulfonamide], the inhibition at 0.1 µM [1] was 63.2%, the inhibition at 1 µM [1] was 87.4% and the inhibition at 0.1 µM [2] was 62%. For the same compound, the inhibition at 1 µM [2] was 81%.

`Cc1c(NS(C)(=O)=O)cccc1N(Cc1ccc(C#N)cc1)Cc1ccc(Oc2cc(CO)cc(OCC3CCOC3)c2)cc1` (centres unmarked) [Example 81, N-(3-((4-cyanobenzyl)(4-(3-(hydroxymethyl)-5-((tetrahydrofuran-3-yl)methoxy)phenoxy)benzyl)amino)-2-methylphenyl)methanesulfonamide] showed an inhibition at 0.1 µM [1] of 88.9% and an inhibition at 1 µM [1] of 88.2%.

`Cc1c(NS(C)(=O)=O)cccc1N(Cc1ccc(Oc2cc(CO)cc(OCC3CCOC3)c2)cc1)Cc1cccc(C#N)c1` (centres unmarked) [Example 80, N-(3-((3-cyanobenzyl)(4-(3-(hydroxymethyl)-5-((tetrahydrofuran-3-yl)methoxy)phenoxy)benzyl)amino)-2-methylphenyl)methanesulfonamide] showed an inhibition at 0.1 µM [1] of 84.1% and an inhibition at 1 µM [1] of 86.5%.

`Cc1c(NS(C)(=O)=O)cccc1N(Cc1ccc(Oc2cccc(OCC3CCOC3)c2)cc1)Cc1cccc(C#N)c1` (centres unmarked) [Example 55, N-(3-((3-cyanobenzyl)(4-(3-((tetrahydrofuran-3-yl)methoxy)phenoxy)benzyl)amino)-2-methylphenyl)methanesulfonamide] was tested, and the inhibition at 0.1 µM [1] was 1.54%, the inhibition at 1 µM [1] was -1.12% and the inhibition at 0.1 µM [2] was 55%. For the same compound, the inhibition at 1 µM [2] was 76%.
